Experimental data taken from patent US11591243B2, “Industrial process and system for the inactivation of liquid waste” (CRISTALIA PRODUTOS QUIMICOS FARMACEUTICOS LTDA., priority 2018, dated 2023).
Structures can show the parent of a compound that is named as a salt.

Tests used:
[1] = Inactivation kinetics by HPLC of high potency APIs with chemical agents; format: physicochemical; conditions: chemical agents and analytical methods appropriate for each API; different exposure time; HPLC (FIG. 4)
Description: The inactivation kinetics by HPLC of high potency APIs bortezomib, decitabine, sunitinib malate, temozolomide and zoledronic acid was evaluated using chemical agents and analytical methods appropriate for each API.

[2] = Inactivation kinetics by HPLC of imatinib mesylate liquid waste with hypochlorous acid; format: physicochemical; conditions: 20 mg/mL aqueous solution, 1% hypochlorous acid aqueous solution as inactivation chemical agent
Description: The inactivation kinetics by HPLC of a liquid waste comprising 20 mg/mL imatinib mesylate aqueous solution was evaluated using a 1% hypochlorous acid aqueous solution as inactivation chemical agent, as illustrated in FIGS. 2 and 3. It is possible to verify that 10 minutes of exposure were enough for complete inactivation of imatinib mesylate by hypochlorous acid.
The equipment used was a High-Performance Liquid Chromatography-HPLC, Agilent Tech. Model 1260.
Solution A: Prepare a mixture of methanol and acetonitrile (300:200) and homogenize.
Mobile Phase: transfer 1.65 g of sodium dihydrogen phosphate dihydrate to a beaker. Dissolve in 550 mL of purified water and adjust pH to 8.0±0.2 using trimethylamine and homogenize. Add 450 mL of solution A, homogenize and filter using a membrane of 0.45 μm.
Chromatographic Conditions:
Column: Develosil ODS HG-5 (4.6×150 mm, 5 μm)—Phenomenex
Column temperature: 30° C.
Chromatographic time: 50 minutes
Retention time for imatinib: about 18 minutes
Sample temperature: 5° C.

inactivation by chemical agent action [1] | exposure time enough for complete inactivation [2] [min] | SMILES
completely inactivated | – | CCN(CC)CCNC(=O)c1c(C)[nH]c(/C=C2\C(=O)Nc3ccc(F)cc32)c1C [sunitinib malate]
completely inactivated | – | CC(C)C[C@H](NC(=O)[C@H](Cc1ccccc1)NC(=O)c1cnccn1)B(O)O [bortezomib]
– | ≤ 10 | Cc1ccc(NC(=O)c2ccc(CN3CCN(C)CC3)cc2)cc1Nc1nccc(-c2cccnc2)n1 [imatinib mesylate]
